Experimental data published in patent publication US20260226006A1, “INDOLE COMPOUND, PREPARATION METHOD THEREFOR AND USE THEREOF” (SUZHOU MERNA THERAPEUTICS CO. LTD, priority 2023, published 2026).

Legend:
HaCat cells = assay: m6A methylation level of human HaCat keratinocytes, EpiQuik m6A RNA methylation quantification kit (Example 20); type: cell-based; details: for abnormal increase in the RNA m6A level of human keratinocytes caused by chemotherapeutic drugs and multikinase inhibitors: 400 nM compound after 50 nM drug; for m6A fold change relative to control group 1: HaCat cells, 24 hours
Outline: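 HaCat keratinocytes in DMEM/10% FBS given 50 nM sorafenib, capecitabine, docetaxel or osimertinib, then 400 nM test compound or nicotinamide, and cultured 24 hours at 37° C. Total RNA m6A quantified by EpiQuik ELISA at 450 nm against a standard curve, expressed as percentage of RNA input.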

HaCaT keratinocytes = assay: Inhibition of HBEGF-induced differentiation of HaCaT keratinocytes, marker mRNA by RT-PCR (Example 21); type: cell-based, human; details: 2.5 ng/mL human recombinant HBEGF protein + test compound, 24 hours
Outline: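 HaCaT cells cultured 24 h at 37° C, then exposed for 24 h to 2.5 ng/mL recombinant human HBEGF with test compounds; DMSO and HBEGF-only controls. Total RNA (1 μg) reverse-transcribed; KRT1, KRT10, Loricrin and Involucrin mRNA measured by SYBR RT-PCR and agarose gel electrophoresis.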

paw plantar skin of rats = assay: Rat models with hand-foot skin reaction, topical ointment (Example 22); type: in vivo, SD rats; details: for Incidence rate: 30 days; for incidence rate of hand-foot skin reaction at a drug application site: compounds at a mass content of 1% in ointment; for incidence rate of hand-foot skin reaction in all paws of the rats: compounds at mass contents of 3% and 10% in ointment; for formation of blisters, inflammatory cell infiltration in the dermis and skin congestion (pathological scoring) / formation of blisters, inflammatory cell infiltration in the dermis and skin congestion (tissue staining): paw plantar skin of modeled rats; for formation of blisters, inflammatory cell infiltration in the dermis and skin congestion (pathological scoring) / formation of blisters, inflammatory cell infiltration in the dermis and skin congestion (tissue staining) / stratum corneum thickness of the paw plantar skin of the modeled rats: topical ointment; for differentiation of keratinocytes both in vitro and in vivo: summary of Examples 21 and 22
Protocol: After adaptive feeding for one week, SD rats (with a body weight of approximately 200 g) were randomly divided into groups according to the body weight, with 12 rats in each group. Modeling drugs (including sorafenib, erlotinib, afatinib, and osimertinib) were respectively dissolved in a solution containing 5% of DMSO, 45% of PEG400, and 50% of H2O, and the modeling drugs were diluted to required concentrations and then administered once daily by gavage at doses shown in Table 3. After administration by gavage for 1 hour, 0.05 g of ointments containing different mass proportions of test compounds were evenly applied to left paws of the rats, a blank matrix ointment was applied to right paws of the rats to serve as a self-control, and no ointment was applied to the rats in a blank control group. After drug application, four limbs were continuously immobilized for 2 hours, then wiped with clean water to remove the residual drugs, removed from immobilization, and restored to free movement. The modeling drugs, the blank matrix ointment, and the ointments containing the test compounds were all administered once daily. After continuous administration for 30 days, the rats were euthanized, and paw plantar skin tissues were collected, fixed in 10% neutral formalin, […]. The ointments for the test compounds were prepared by mixing the compounds, white beeswax, white petrolatum, and light liquid paraffin in specific ratios (weight ratios of 3 ointments were respectively 1:18:58:23, 3:18:57:22, and 10:20:40:30). The blank matrix ointment was prepared by mixing white beeswax, white petrolatum, and light liquid paraffin in a specific ratio (weight ratio of 18:60:22).
Tissue staining: After dewaxing and rehydration, the paw plantar skin tissue sections of the above rats were stained in a hematoxylin solution for several minutes, cleaned, and placed in 1% acid alcohol for soaking until the sections faded to light blue-red. After cleaning with running water for 5 minutes, the sections were stained with eosin for 2-3 minutes, cleaned to remove excess dyes, dehydrated, then permeabilized by adding xylene for several minutes, and sealed and fixed with a neutral resin. The stratum corneum was observed under an optical microscope, and the thickness of the epidermal stratum corneum was measured using Dmetrix software.
Immunohistochemical staining: After dewaxing and hydration, the paw plantar skin tissue sections of the above rats were incubated with 3% H2O2 at room temperature for 30 minutes and blocked with 10% goat serum for 30 minutes after antigen retrieval. A KRT1 antibody (Abcam, ab93652) and a Loricrin antibody (Abcam, ab183646) were added dropwise, the sections were incubated overnight at 4° C., and an HRP secondary antibody (ZSGB-BIO, PV-6001) and a DAB kit (ZSG-BIO, ZLI9017) were added for color development. The sections were re-stained with hematoxylin, cleaned, and sealed and fixed with a neutral resin, and the expression amounts of KRT1 and Loricrin were observed under an optical microscope.
An incidence rate calculation method involves a proportion of animals in each group meeting the above criteria for determining successful modeling, that is, incidence rate=(number of successfully modeled rats/total number of rats in the group)*100%. […]

[1] = 50 nM capecitabine + 400 nM test compound
[2] = 50 nM docetaxel + 400 nM test compound
[3] = 50 nM osimertinib + 400 nM test compound
[4] = 50 nM sorafenib + 400 nM test compound
[5] = afatinib 50 mg/kg, 1% compound ointment on left paw, left paw
[6] = afatinib 50 mg/kg, 1% compound ointment on left paw, right paw (blank matrix ointment)
[7] = afatinib 50 mg/kg, 3% compound ointment on left paw, left paw
[8] = afatinib 50 mg/kg, 3% compound ointment on left paw, right paw (blank matrix ointment)
[9] = afatinib 50 mg/kg, 10% compound ointment on left paw, left paw
[10] = afatinib 50 mg/kg, 10% compound ointment on left paw, right paw (blank matrix ointment)
[11] = erlotinib 70 mg/kg, 1% compound ointment on left paw, left paw
[12] = erlotinib 70 mg/kg, 1% compound ointment on left paw, right paw (blank matrix ointment)
[13] = erlotinib 70 mg/kg, 3% compound ointment on left paw, left paw
[14] = erlotinib 70 mg/kg, 3% compound ointment on left paw, right paw (blank matrix ointment)
[15] = erlotinib 70 mg/kg, 10% compound ointment on left paw, left paw
[16] = erlotinib 70 mg/kg, 10% compound ointment on left paw, right paw (blank matrix ointment)
[17] = osimertinib 60 mg/kg, 1% compound ointment on left paw, left paw
[18] = osimertinib 60 mg/kg, 1% compound ointment on left paw, right paw (blank matrix ointment)
[19] = osimertinib 60 mg/kg, 3% compound ointment on left paw, left paw
[20] = osimertinib 60 mg/kg, 3% compound ointment on left paw, right paw (blank matrix ointment)
[21] = osimertinib 60 mg/kg, 10% compound ointment on left paw, left paw
[22] = osimertinib 60 mg/kg, 10% compound ointment on left paw, right paw (blank matrix ointment)
[23] = sorafenib 100 mg/kg, 1% compound ointment on left paw, left paw
[24] = sorafenib 100 mg/kg, 1% compound ointment on left paw, right paw (blank matrix ointment)
[25] = sorafenib 100 mg/kg, 3% compound ointment on left paw, left paw
[26] = sorafenib 100 mg/kg, 3% compound ointment on left paw, right paw (blank matrix ointment)
[27] = sorafenib 100 mg/kg, 10% compound ointment on left paw, left paw
[28] = sorafenib 100 mg/kg, 10% compound ointment on left paw, right paw (blank matrix ointment)

Compound | abnormal increase in the RNA m6A level of human keratinocytes caused by chemotherapeutic drugs and multikinase inhibitors (HaCat cells) | m6A fold change relative to control group 1 (HaCat cells; [1]) | m6A fold change relative to control group 1 (HaCat cells; [2]) | m6A fold change relative to control group 1 (HaCat cells; [3]) | m6A fold change relative to control group 1 (HaCat cells; [4]) | mRNA expression amounts of HaCaT differentiation markers KRT1, KRT10, Loricrin, and Involucrin (HaCaT keratinocytes) | Incidence rate (paw plantar skin of rats; [5]) | Incidence rate (paw plantar skin of rats; [6]) | Incidence rate (paw plantar skin of rats; [7]) | Incidence rate (paw plantar skin of rats; [8]) | Incidence rate (paw plantar skin of rats; [9]) | Incidence rate (paw plantar skin of rats; [10]) | incidence rate of hand-foot skin reaction at a drug application site (paw plantar skin of rats) | incidence rate of hand-foot skin reaction in all paws of the rats (paw plantar skin of rats) | Incidence rate (paw plantar skin of rats; [11]) | Incidence rate (paw plantar skin of rats; [12]) | Incidence rate (paw plantar skin of rats; [13]) | Incidence rate (paw plantar skin of rats; [14]) | Incidence rate (paw plantar skin of rats; [15]) | Incidence rate (paw plantar skin of rats; [16]) | other results
NC(=O)[C@H]1CCCc2c1[nH]c1ccc(Cl)cc21 [Compound 2b, (S)-6-chloro-2,3,4,9-tetrahydro-1H-carbazole-1-carboxamide] | effectively inhibit | 1.1 | 1.0 | 1.2 | 1.4 | significantly inhibited | 3/12 (25%) | 9/12 (75%) | 2/12 (17%) | 4/12 (33%) | 0/12 (0%) | 3/12 (25%) | significantly decrease | significantly decrease | 3/12 (25%) | 10/12 (83%) | 2/12 (17%) | 5/12 (42%) | 1/12 (8%) | 4/12 (33%) | Incidence rate (paw plantar skin of rats; [17]): 2/12 (17%); Incidence rate (paw plantar skin of rats; [18]): 8/12 (67%); Incidence rate (paw plantar skin of rats; [19]): 2/12 (17%); Incidence rate (paw plantar skin of rats; [20]): 4/12 (33%); Incidence rate (paw plantar skin of rats; [21]): 0/12 (0%); Incidence rate (paw plantar skin of rats; [22]): 3/12 (25%); formation of blisters, inflammatory cell infiltration in the dermis and skin congestion (pathological scoring) (paw plantar skin of rats): effectively improve; formation of blisters, inflammatory cell infiltration in the dermis and skin congestion (tissue staining) (paw plantar skin of rats): effectively improve; Incidence rate (paw plantar skin of rats; [23]): 2/12 (17%); Incidence rate (paw plantar skin of rats; [24]): 9/12 (75%); Incidence rate (paw plantar skin of rats; [25]): 2/12 (17%); Incidence rate (paw plantar skin of rats; [26]): 4/12 (33%); Incidence rate (paw plantar skin of rats; [27]): 0/12 (0%); Incidence rate (paw plantar skin of rats; [28]): 4/12 (33%); differentiation of keratinocytes both in vitro and in vivo (paw plantar skin of rats): effectively inhibit; stratum corneum thickness of the paw plantar skin of the modeled rats (paw plantar skin of rats): effectively decrease
NC(=O)C1CCCc2c1[nH]c1ccc(Cl)cc21 (stereo not shown) [Compound 2, 6-chloro-2,3,4,9-tetrahydro-1H-carbazole-1-carboxamide] | effectively inhibit | 2.3 | 3.3 | 2.2 | 2.4 | significantly inhibited | 2/12 (17%) | 7/12 (58%) | 2/12 (17%) | 5/12 (42%) | 1/12 (8%) | 5/12 (42%) | significantly decrease | significantly decrease | 3/12 (25%) | 10/12 (83%) | 2/12 (17%) | 4/12 (33%) | 1/12 (8%) | 4/12 (33%) | Incidence rate (paw plantar skin of rats; [17]): 2/12 (17%); Incidence rate (paw plantar skin of rats; [18]): 9/12 (75%); Incidence rate (paw plantar skin of rats; [20]): 4/12 (33%); Incidence rate (paw plantar skin of rats; [21]): 0/12 (0%); Incidence rate (paw plantar skin of rats; [22]): 3/12 (25%); formation of blisters, inflammatory cell infiltration in the dermis and skin congestion (pathological scoring) (paw plantar skin of rats): effectively improve; Incidence rate (paw plantar skin of rats; [23]): 3/12 (25%); Incidence rate (paw plantar skin of rats; [24]): 8/12 (67%); Incidence rate (paw plantar skin of rats; [25]): 1/12 (8%); Incidence rate (paw plantar skin of rats; [26]): 5/12 (42%); Incidence rate (paw plantar skin of rats; [27]): 0/12 (0%); Incidence rate (paw plantar skin of rats; [28]): 5/12 (42%); differentiation of keratinocytes both in vitro and in vivo (paw plantar skin of rats): effectively inhibit; stratum corneum thickness of the paw plantar skin of the modeled rats (paw plantar skin of rats): effectively decrease
NC(=O)C1c2[nH]c3ccc(Cl)cc3c2C2CCC1C2 [Compound 5a, (S)-2-chloro-5,6,7,8,9,10-hexahydro-7,10-methanocyclohepta[b]indole-6-carboxamide] | effectively inhibit | 1.2 | 1.0 | 1.2 | 1.0 | significantly inhibited | 1/12 (8%) | 9/12 (75%) | 1/12 (8%) | 4/12 (33%) | 0/12 (0%) | 1/12 (8%) | significantly decrease | significantly decrease | 2/12 (17%) | 9/12 (75%) | 2/12 (17%) | 5/12 (42%) | 0/12 (0%) | 0/12 (0%) | Incidence rate (paw plantar skin of rats; [17]): 2/12 (17%); Incidence rate (paw plantar skin of rats; [18]): 9/12 (75%); Incidence rate (paw plantar skin of rats; [19]): 1/12 (8%); Incidence rate (paw plantar skin of rats; [20]): 4/12 (33%); Incidence rate (paw plantar skin of rats; [21]): 0/12 (0%); Incidence rate (paw plantar skin of rats; [22]): 1/12 (8%); formation of blisters, inflammatory cell infiltration in the dermis and skin congestion (pathological scoring) (paw plantar skin of rats): effectively improve; formation of blisters, inflammatory cell infiltration in the dermis and skin congestion (tissue staining) (paw plantar skin of rats): effectively improve; Incidence rate (paw plantar skin of rats; [23]): 1/12 (8%); Incidence rate (paw plantar skin of rats; [24]): 10/12 (83%); Incidence rate (paw plantar skin of rats; [25]): 1/12 (8%); Incidence rate (paw plantar skin of rats; [26]): 5/12 (42%); Incidence rate (paw plantar skin of rats; [27]): 0/12 (0%); Incidence rate (paw plantar skin of rats; [28]): 2/12 (17%; differentiation of keratinocytes both in vitro and in vivo (paw plantar skin of rats): effectively inhibit; stratum corneum thickness of the paw plantar skin of the modeled rats (paw plantar skin of rats): effectively decrease
